Assay results from patent publication US11377452B2, “Glutamate transporter activators and methods using same” (DREXEL UNIVERSITY, priority 2017, dated 2022).
Values belong to the compound of their own block, whether it stands above or below them.

How the values were obtained:
NMDA receptors = assay: NMDA-induced calcium response, calcium imaging in cultured cortical neurons; format: cell-based, mouse; conditions: 100 μM NMDA with 3 μM glycine, no Mg2+; AP-V at 40 μM
Protocol: To determine whether the compounds have effects on the function of NMDA receptors, calcium imaging recordings from cultured cortical neurons were performed as described previously (Nicolai, et al., 2010, Cell Death Dis. 1:e33).
Primary cortical neurons were obtained from the cerebral cortex of neonatal (P1 or P2) C57BL/6 mice, plated at a density of 3000 cells/12 mm round coverslip, and cultured in medium containing Neurobasal A, fetal calf serum (2%), heat-inactivated horse serum (2%), L-glutamax-1 (0.2 mM), and B-27 supplement (2%). Cells were maintained at 37° C. in a humidified atmosphere containing 5% CO2. The calcium imaging experiments were conducted on DIV 1.
Recordings were performed in living neurons, as described (Xia, et al., 2014, J. Physiol. 592:3443-3461). Briefly, cultured neurons were loaded with a Fura-2 calcium dye in Tyrode's solution containing (in mM) 140 NaCl, 5 KCl, 2 CaCl2, 1 MgCl2, 10 HEPES, and 5.6 glucose. Coverslips were mounted in the imaging chamber (model RC-25, Warner Instruments, Hamden, Conn.) and continuously perfused with Tyrode's solution containing 0.5 μM tetrodotoxin. Images were acquired in 3 s intervals at room temperature (20-22° C.) using an Olympus inverted microscope equipped with a CCD camera (Hamamatsu ORCA-03G, Japan). The fluorescence ratio was determined as the fluorescence intensities excited at 340 and 380 nm with background subtracted. 100 μM NMDA was applied in the presence of 3 μM glycine and in the absence of Mg^2+. The NMDA receptor antagonist AP-V (40 μM) was applied to certify that the result was specifically the NMDA-induced calcium response. Vehicle, GT949, or GT951 was applied, and calcium changes were recorded.
Recordings were performed in living neurons, as described (Xia, et al., 2014, J. Physiol. 592:3443-3461). Briefly, cultured neurons were loaded with Fura-2 calcium dye in Hank's balanced salt solution (HBSS). 100 μM NMDA was applied in the presence of 3 μM glycine and in the absence of Mg^2+. […] Vehicle, GT949, or GT951 was applied, and calcium currents were recorded.

EAAT2 [1] = target: T1, EAAT2 (Homo sapiens, UniProt P43004); assay: Dose-response glutamate uptake in COS-7 cells transfected with EAAT2; format: cell-based; conditions: for kind of modulation of EAAT2 glutamate uptake in dose-response assays: COS-7 cells expressing EAAT2
T1 construct: expressed in transfected cells; host or cells: COS-7
From the text: (§1) COS-7 cells were maintained in DMEM with 10% fetal calf serum under 5% CO2. Transfection with empty vector pCMV-5 was used to control for the level of endogenous uptake of radiolabeled substrate in each experimental condition. The specificity of the effect of the compounds was investigated in COS-7 cells transiently transfected with glutamate transporter subtypes EAAT1-3 and monoamine transporters hNET (human noradrenaline transporter), hDAT (dopamine transporter), and hSERT (serotonin transporter).
(§2) For glutamate uptake assays, subconfluent COS-7 cells were transfected with 0.5 μg of plasmid DNA per well using TransIT-LT1 transfection reagent (Mirus Bio LLC, Madison, Wis.) and plated at a density of ˜100 000 cells per well in 24-well tissue culture plates. For monoamine uptake assays, cells were transfected 0.1 μg of DNA per well as above and plated at a density of 10 000 cells per well in 96-wells plates.
Uptake reactions were initiated by the addition of 50 nM ^3H-L-glutamate, serotonin, dopamine, or noradrenaline, as appropriate.
(§3) All reactions were carried out for 10 min; then, uptake was terminated by removal of solution, followed by two washes with PBSCM. Cells in 24-well plates were lysed with 1% SDS/0.1 M NaOH. Lysate was transferred to scintillation vials containing 3 mL of scintillation fluid, and radioactivity was quantified in an LS 6500 scintillation counter (Beckman Coulter, Brea, Calif.). For 96-well plates, scintillation fluid was added to each well, and the plate was counted in a Wallac M50 microbeta scintillation analyzer.

EAAT1 = target: T2, EAAT1 (Homo sapiens, UniProt P43003); assay: Dose-response glutamate uptake in COS-7 cells transfected with EAAT1; format: cell-based
T2 construct: expressed in transfected cells; host or cells: COS-7
From the text: as §1, §2
[…]. […]
as §3, with “Cells in 24-well plates were lysed with 1% SDS/0.1 M NaOH.” left out

EAAT3 = target: T3, EAAT3 (Homo sapiens, UniProt P43005); assay: Dose-response glutamate uptake in COS-7 cells transfected with EAAT3; format: cell-based
T3 construct: expressed in transfected cells; host or cells: COS-7
T3 sequence (P43005 1-524): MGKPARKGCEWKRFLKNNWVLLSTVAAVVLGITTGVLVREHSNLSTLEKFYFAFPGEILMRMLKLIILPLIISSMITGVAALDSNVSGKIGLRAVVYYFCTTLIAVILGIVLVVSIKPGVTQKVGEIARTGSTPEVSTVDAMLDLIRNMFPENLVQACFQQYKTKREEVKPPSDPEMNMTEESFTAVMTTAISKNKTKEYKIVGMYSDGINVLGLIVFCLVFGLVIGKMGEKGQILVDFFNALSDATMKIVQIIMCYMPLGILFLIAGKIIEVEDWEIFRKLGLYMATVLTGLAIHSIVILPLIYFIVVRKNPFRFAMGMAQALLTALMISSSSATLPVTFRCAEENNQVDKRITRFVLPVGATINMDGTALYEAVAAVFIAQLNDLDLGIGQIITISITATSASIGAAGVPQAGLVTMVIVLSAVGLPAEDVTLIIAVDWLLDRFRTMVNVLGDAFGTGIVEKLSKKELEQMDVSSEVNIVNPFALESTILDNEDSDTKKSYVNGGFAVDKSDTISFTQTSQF
From the text: as §1, §2
[…]. […]
as §3, with “Cells in 24-well plates were lysed with 1% SDS/0.1 M NaOH.” left out

EAAT2 [2] = target: T1, EAAT2; assay: Kinetic assay of L-glutamate uptake in EAAT2-transfected COS-7 cells; format: cell-based; conditions: GT949 and GT951 pre-incubated at 1 nM
From the text: as §1, §2
as §3, with “Cells in 24-well plates were lysed with 1% SDS/0.1 M NaOH.” left out

cultured astrocytes = assay: Glutamate uptake in cultured astrocytes; format: cell-based, rat
Protocol: Glia was prepared and cultured according to Shimizu, et al., 2011, J. Visualized Exp. e3257 with modifications. Briefly, cerebral cortices from 2-4 day old Holtzman rat pups were dissected under sterile conditions and placed in 60 mm dishes containing dissection medium (in mM: 16 glucose, 22 sucrose, 135 NaCl, 5 KCl, 1 Na2HPO4, 0.22 KH2PO4, 10 HEPES, pH 7.4, Osmolarity 310+10 mOsm). Tissue was minced with curved scissors and digested in 0.25% trypsin for 15 min. Trypsin activity was ended by transferring tissue pieces to another vial with dissection medium. Tissue was then repeatedly passed through a serological plastic pipette until it was dissociated by trituration in the presence of 60 μg/mL DNase. Cells were pelleted by centrifugation for 15 min at 280 g and resuspended in glia plating medium (90% DMEM, 10% FBS, and 50 μg/mL gentamicin) and transferred to culture flasks kept in a 37° C. incubator (5-10% CO2). After growth for 10 days in vitro (DIV), cells were detached with 0.05% trypsin, centrifuged, and plated at a density of 10 000 cells/well in polylysine-coated 96-well plates. Plates were grown for 14 DIV before uptake assays were performed.
Assays were performed as described (Timple, et al., 2013, J. Nat. Prod. 76:1889-1895). Briefly, using an Elx50 Biotek plate washer (Winooski, Vt., USA), cells were washed in PBS-CM buffer. For dose-response assays, vehicle and several concentrations of the compounds (0.01 nM to 1 μM) were added and incubated for 10 min at 37° C. Uptake assays were initiated by addition of 50 nM L-[^3H]-glutamate, and incubation was carried on for 10 min at room temperature. Nonspecific uptake was obtained in the presence of 10 μM DL-TBOA.
Reactions were finished by washing the plates twice with PBS-CM and the addition of 100 μL of scintillation fluid to each well. Radioactivity was counted in a microplate scintillation and luminescence counter (Wallac, Shelton, Conn., USA).

T1 sequence (P43004 whole entry): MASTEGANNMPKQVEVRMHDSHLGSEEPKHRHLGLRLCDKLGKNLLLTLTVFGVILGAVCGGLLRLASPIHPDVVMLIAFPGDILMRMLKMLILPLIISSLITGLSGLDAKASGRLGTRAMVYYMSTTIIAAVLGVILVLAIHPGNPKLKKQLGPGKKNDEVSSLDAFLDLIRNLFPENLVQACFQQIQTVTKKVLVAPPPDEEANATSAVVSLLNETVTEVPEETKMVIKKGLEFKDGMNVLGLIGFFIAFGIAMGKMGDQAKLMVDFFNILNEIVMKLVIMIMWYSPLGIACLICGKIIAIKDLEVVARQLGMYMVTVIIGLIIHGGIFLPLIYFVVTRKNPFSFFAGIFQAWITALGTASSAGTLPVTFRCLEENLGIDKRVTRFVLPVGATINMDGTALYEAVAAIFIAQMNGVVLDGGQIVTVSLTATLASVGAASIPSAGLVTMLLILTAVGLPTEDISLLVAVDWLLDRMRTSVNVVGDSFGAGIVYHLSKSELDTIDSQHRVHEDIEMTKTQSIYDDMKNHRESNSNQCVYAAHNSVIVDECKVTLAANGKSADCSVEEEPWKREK
T2 sequence (P43003 whole entry): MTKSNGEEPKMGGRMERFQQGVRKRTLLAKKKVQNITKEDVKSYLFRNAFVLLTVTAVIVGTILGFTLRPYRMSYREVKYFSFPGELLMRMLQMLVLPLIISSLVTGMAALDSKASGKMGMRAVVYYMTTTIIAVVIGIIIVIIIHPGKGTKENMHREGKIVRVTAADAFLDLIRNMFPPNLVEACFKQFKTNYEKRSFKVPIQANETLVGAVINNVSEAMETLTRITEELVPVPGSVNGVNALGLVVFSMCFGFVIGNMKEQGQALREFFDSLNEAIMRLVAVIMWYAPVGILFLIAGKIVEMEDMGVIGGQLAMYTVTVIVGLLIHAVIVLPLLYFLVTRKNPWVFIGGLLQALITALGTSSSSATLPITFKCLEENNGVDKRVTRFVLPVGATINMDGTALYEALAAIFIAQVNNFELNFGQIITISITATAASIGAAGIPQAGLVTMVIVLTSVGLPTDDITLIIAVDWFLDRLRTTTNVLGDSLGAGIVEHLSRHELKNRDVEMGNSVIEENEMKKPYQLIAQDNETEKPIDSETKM

SMILES: NC(CCCP(=O)(O)O)C(=O)O (racemic) [AP-V, (DL)-2-amino-5-phosphonovaleric acid, reference compound]
effect on NMDA-induced calcium response (NMDA receptors): drastically attenuated

SMILES: O=C(c1ccc(S(=O)(=O)N2CCCC2)cc1)N1CCN(c2nc(-c3ccccc3)nc3sc4c(c23)CCC4)CC1 [GT988, (4-(2-phenyl-6,7-dihydro-5H-cyclopenta [4,5]thieno[2,3-d]pyrimidin-4-yl)piperazin-1-yl)(4-(pyrrolidin-1-ylsulfonyl)phenyl) methanone]
kind of modulation of EAAT2 glutamate uptake in dose-response assays (EAAT2 [1]): no effect

SMILES: Cc1cc(C)c2cc(C(c3nnnn3CCc3ccccc3)N3CCN(C(=O)c4ccco4)CC3)c(=O)[nH]c2c1 (stereo not drawn) [GT996, 3-((4-(furan-2-carbonyl)piperazin-1-yl)(1-phenethyl-1H-tetrazol-5-yl)methyl)-5,7-dimethylquinolin-2(1H)-one]
modulation of glutamate transport in cultured astrocytes (cultured astrocytes; cultured rat astrocytes, negative control): inactive

SMILES: COc1ccc(C2C(C#N)=C(N)OC3=C2C(=O)CC(c2cccc4ccccc24)C3)cc1 (stereo not drawn) [UCPH-101, 2-Amino-5,6,7,8-tetrahydro-4-(4-methoxyphenyl)-7-(naphthalen-1-yl)-5-oxo-4H-chromene-3-carbonitrile, reference compound]
inhibition of glutamate uptake in cultured glial cells by selective EAAT inhibitors (cultured astrocytes; 50 nM 3H-L-glutamate): partial inhibition

Now from value to compound, other results behind:

kind of modulation of EAAT2 glutamate uptake in dose-response assays (EAAT2 [1]): no effect
SMILES: Cc1ccc(C)c2[nH]c(=O)c(C(c3nnnn3CCc3ccccc3)N3CCN(Cc4ccc5c(c4)OCO5)CC3)cc12 (stereo not drawn) [GT867, 3-((4-(benzo[d][1,3]dioxol-5-ylmethyl)piperazin-1-yl)(1-phenethyl-1H-tetrazol-5-yl)methyl)-5,8-dimethylquinolin-2(1H)-one]

kind of modulation of EAAT2 glutamate uptake in dose-response assays (EAAT2 [1]): inhibitors
SMILES: C=CCN1CC(c2nc3ccccc3n2CCCOc2ccc(C(C)CC)cc2)CC1=O (stereo not drawn) [GT922, 1-allyl-4-(1-(3-(4-(sec-butyl)phenoxy)propyl)-1H-benzo[d]imidazol-2-yl)pyrrolidin-2-one]

kind of modulation of EAAT2 glutamate uptake in dose-response assays (EAAT2 [1]): inhibitors
SMILES: C=CCN1CC(c2nc3ccccc3n2CCCCOc2ccc(C)c(C)c2)CC1=O (stereo not drawn) [GT938, 1-allyl-4-(1-(4-(3,4-dimethylphenoxy)butyl)-1H-benzo[d]imidazol-2-yl)pyrrolidin-2-one]

kind of modulation of EAAT2 glutamate uptake in dose-response assays (EAAT2 [1]): PAMs | EC50 (EAAT2 [1]; COS-7 cells transfected with EAAT2, compound 10 min 37 °C, 50 nM 3H-L-glutamate, mean±SEM, read-out: EC50 (ED50) of enhancement of EAAT2-mediated glutamate transport): 0.7 ± 0.2 nM | effect on EAAT1-mediated glutamate transport (EAAT1): no effect | effect on EAAT3-mediated glutamate transport (EAAT3): no effect | effect on Vmax of transport (EAAT2 [2]): increased Vmax | effect on NMDA-induced calcium response (NMDA receptors): no effects
SMILES: C=CCN1CC(c2nc3ccccc3n2CCCCOc2ccc(Cl)c(C)c2)CC1=O (stereo not drawn) [GT939, 1-allyl-4-(1-(4-(4-chloro-3-methylphenoxy)butyl)-1H-benzo[d]imidazol-2-yl)pyrrolidin-2-one]

effect on EAAT1-mediated glutamate transport (EAAT1): no effect | effect on EAAT3-mediated glutamate transport (EAAT3): no effect | EC50 (cultured astrocytes; Rattus norvegicus, Astrocyte, cultured rat astrocytes, 50 nM 3H-L-glutamate, read-out: potency (EC50) of glutamate uptake enhancement in cultured astrocytes): 0.3 ± 0.2 nM
SMILES: COc1ccc2[nH]c(=O)c(C(c3nnnn3CCc3ccccc3)N3CCN(c4cccc(C(F)(F)F)c4)CC3)cc2c1 (stereo not drawn) [GT951, 6-methoxy-3-((1-phenethyl-1H-tetrazol-5-yl)(4-(3-(trifluoromethyl)phenyl)piperazin-1-yl)methyl)quinolin-2(1H)-one]
efficacy of augmentation of glutamate transport in cultured astrocytes (cultured astrocytes; cultured rat astrocytes): ~27% | effect on NMDA-induced calcium response (NMDA receptors): no effects
